Measurements: patent US20070020744A1, “Enzyme compositions that enhance the flavor of food and beverages” (Amano Enzyme USA Co., Ltd, priority 2005, published 2007)

Key:
[1] = system: Protease M; experiment: Relative activity on nitrophenyl-sugar substrates: Protease M; format: biochemical, Aspergillus oryzae; settings: 100 units arbitrarily chosen for the substrate on which Protease M exhibited the most activity
Method: (§1) The relative activity of Protease M and β-glycosidase on different sugar substrates was assessed. A panel of substrates comprising a nitrophenyl group conjugated to different sugars was used in the study.

[2] = system: β-glycosidase; experiment: Relative activity on nitrophenyl-sugar substrates: β-glycosidase; format: biochemical, Penicillium multicolor; settings: 100 units arbitrarily chosen for the substrate on which β-glycosidase exhibited the most activity
Method: as §1

SMILES | relative activity of β-glycosidase for the substrate [2] | relative activity of Protease M for the substrate [1]
O=[N+]([O-])c1ccc(O[C@H]2O[C@H](CO)[C@H](O)[C@H](O)[C@H]2O)cc1 [4-Nitrophenyl α-D-galactopyranoside] | 100 activity units | 6 activity units
O=[N+]([O-])c1ccc(O[C@H]2O[C@H](CO)[C@@H](O)[C@H](O)[C@H]2O)cc1 [4-Nitrophenyl α-D-glucopyranoside] | 19 activity units | 42 activity units
O=[N+]([O-])c1ccc(O[C@H]2O[C@H](CO)[C@@H](O)[C@H](O)[C@@H]2O)cc1 [4-Nitrophenyl α-D-mannopyranoside] | 19 activity units | 4 activity units
O=[N+]([O-])c1ccc(O[C@@H]2OC[C@H](O)[C@H](O)[C@H]2O)cc1 [4-Nitrophenyl α-L-arabinopyranoside] | 60 activity units | 29 activity units

Now from value to compound, other results behind:

relative activity of β-glycosidase for the substrate [2] | SMILES | relative activity of Protease M for the substrate [1]
12 activity units | O=C(O)[C@H]1O[C@@H](Oc2ccc([N+](=O)[O-])cc2)[C@H](O)[C@@H](O)[C@@H]1O [4-Nitrophenyl β-D-glucuronide] | 4 activity units
57 activity units | O=[N+]([O-])c1ccc(O[C@@H]2O[C@H](CO)[C@@H](O[C@H]3O[C@H](CO)[C@@H](O)[C@H](O)[C@H]3O)[C@H](O)[C@H]2O)cc1 [4-Nitrophenyl β-D-maltoside] | 63 activity units
55 activity units | O=[N+]([O-])c1ccc(O[C@@H]2O[C@H](CO)[C@@H](O[C@@H]3O[C@H](CO)[C@@H](O)[C@H](O)[C@H]3O)[C@H](O)[C@H]2O)cc1 [4-Nitrophenyl β-D-cellobioside] | 68 activity units
12 activity units | O=[N+]([O-])c1ccc(O[C@@H]2O[C@H](CO)[C@@H](O)[C@H](O)[C@@H]2O)cc1 [4-Nitrophenyl β-D-mannopyranoside] | 10 activity units
85 activity units | O=[N+]([O-])c1ccc(O[C@@H]2O[C@H](CO)[C@H](O)[C@H](O)[C@H]2O)cc1 [4-Nitrophenyl β-D-galactopyranoside] | 100 activity units
